Experimental data published in patent publication US10947222B2, “Indole derivatives useful as inhibitors of diacylglyceride O-acyltransferase 2” (Merck Sharp & Dohme Corp., priority 2016, dated 2021).

Target: human DGAT2 (hDGAT2) (Homo sapiens (Human), UniProt Q96PD7)
Experiment: DGAT2 enzymatic activity assay (triolein formation, LC/MS/MS)
Format: biochemical
Conditions: Sf-9 membrane prep expressing hDGAT2; 25 μM diolein, 10 μM oleoyl-CoA; triolein by LC/MS/MS
Outline: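 Membranes from Sf-9 cells infected with untagged baculovirus hDGAT2 were incubated at rt in 100 mM Tris.Cl pH 7.0, 20 mM MgCl2, 5% ethanol with 25 μM diolein and 10 μM oleoyl-CoA (10 ng/μL membrane). Triolein was quantified by LC/MS/MS against internal standard; IC50 by 4-parameter sigmoidal fit.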

Chain of human DGAT2 (hDGAT2) (Q96PD7 whole entry): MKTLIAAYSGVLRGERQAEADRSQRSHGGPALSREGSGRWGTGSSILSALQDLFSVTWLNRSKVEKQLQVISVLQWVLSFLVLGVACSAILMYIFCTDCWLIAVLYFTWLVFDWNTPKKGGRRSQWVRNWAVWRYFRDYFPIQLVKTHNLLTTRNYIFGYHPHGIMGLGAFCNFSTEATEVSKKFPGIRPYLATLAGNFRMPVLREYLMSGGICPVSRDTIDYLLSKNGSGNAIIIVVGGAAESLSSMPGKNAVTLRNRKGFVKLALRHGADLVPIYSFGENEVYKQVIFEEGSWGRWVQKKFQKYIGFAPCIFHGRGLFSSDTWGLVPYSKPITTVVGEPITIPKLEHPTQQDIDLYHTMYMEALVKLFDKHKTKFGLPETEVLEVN

SMILES	IC50 [nM]
CC1(NC(=O)c2ccc3c(-c4ccccc4Cl)cn(-c4ncc(F)cn4)c3c2)CCS(=O)(=O)C1 (single isomer, unassigned; enantiomer b) [Example 15-B, 3-(2-chlorophenyl)-1-(5-fluoropyrimidin-2-yl)-N-(3-methyl-1,1-dioxidotetrahydrothiophen-3-yl)-1H-indole-6-carboxamide (enantiomer B, slow)]	28
CC1(NC(=O)c2ccc3c(-c4cccc(OC(F)F)c4)cn(-c4ncc(F)cn4)c3c2)CCS(=O)(=O)C1 (single isomer, unassigned; enantiomer b) [Example 18-B, 3-(3-(difluoromethoxy)phenyl)-1-(5-fluoropyrimidin-2-yl)-N-(3-methyl-1,1-dioxidotetrahydrothiophen-3-yl)-1H-indole-6-carboxamide (enantiomer B)]	0.91
CC(C)(CN1CCOCC1)NC(=O)c1ccc2c(-c3ccccc3Cl)cn(-c3ccc(F)cc3)c2c1 [Example 4, 3-(2-chlorophenyl)-1-(4-fluorophenyl)-N-(2-methyl-1-morpholinopropan-2-yl)-1H-indole-6-carboxamide]	629
O=C(N[C@H](CO)c1ccc(C(F)(F)F)nc1)c1ccc2c(-c3ccccc3Cl)cn(-c3ccc(F)cc3)c2c1 [Example 5, (S)-3-(2-chlorophenyl)-1-(4-fluorophenyl)-N-(2-hydroxy-1-(6-(trifluoromethyl)pyridin-3-yl)ethyl)-1H-indole-6-carboxamide]	190

Continued, values first:

IC50 [nM]	SMILES
476	C[C@H](NC(=O)c1ccc2c(-c3ccccc3Cl)cn(-c3ccc(F)cc3)c2c1)c1ccc(C(F)(F)F)nc1 [Example 6, (S)-3-(2-chlorophenyl)-1-(4-fluorophenyl)-N-(1-(6-(trifluoromethyl)pyridin-3-yl)ethyl)-1H-indole-6-carboxamide]
671	C[C@@H](NC(=O)c1ccc2c(-c3ccccc3Cl)cn(-c3ccc(F)cc3)c2c1)c1ccc(C(F)(F)F)nc1 [Example 7, (R)-3-(2-chlorophenyl)-1-(4-fluorophenyl)-N-(1-(6-(trifluoromethyl)pyridin-3-yl)ethyl)-1H-indole-6-carboxamide]
